Source: patent publication US10028966B2 (Avalyn Pharma Inc., priority 2014, dated 2018)
In brackets after ≈: the same amount, converted by molar mass.

What was measured:
CYP1A2 = target: T1, CYP1A2 (Homo sapiens, UniProt P05177); conditions: hepatic microsomes; cited from earlier work
T1 construct: In vitro metabolism studies with hepatic microsomes; from tissue; host or cells: hepatic microsomes

[1] = test system: LPS-induced pulmonary inflammasome model; assay: LPS-induced pulmonary inflammasome model (BAL cell counts, BAL IL-1β); format: in vivo, Sprague Dawley rats; conditions: for BAL IL-1β, average / BAL cells (%), EO (eosinophil), average / BAL cells (%), LM (lymphocytes), average / BAL cells (%), NP (neutrophils), average / BAL number cells, EO (eosinophil), average / BAL number cells, LM (lymphocytes), average / BAL number cells, NP (neutrophils), average: 24 hours, n = 4; for LPS-induced IL-1β (%): relative to LPS + IT saline = 100
Experimental: To compare the efficacy of intratracheal, direct-lung aerosol administration and oral gavage, the LPS-induced pulmonary inflammasome model was performed. Briefly, Sprague Dawley rats (200-250 grams) were administered a single dose of LPS by the intratracheal route (IT) using a intubation aerosol delivery device. All IT doses were delivered just above the first pulmonary bifurcation. Sham animals were treated with saline. […] Lungs were lavaged and collected bronchial lavage fluid (BAL) was assessed for total cell count, neutrophils, macrophage, eosinophils and lymphocytes. BAL was also assessed for IL-1b.

2C19 = target: T2, 2C19 (Homo sapiens, UniProt P33261); conditions: hepatic microsomes; cited from earlier work
T2 construct: In vitro metabolism studies with hepatic microsomes; from tissue; host or cells: hepatic microsomes
T2 sequence (P33261 whole entry): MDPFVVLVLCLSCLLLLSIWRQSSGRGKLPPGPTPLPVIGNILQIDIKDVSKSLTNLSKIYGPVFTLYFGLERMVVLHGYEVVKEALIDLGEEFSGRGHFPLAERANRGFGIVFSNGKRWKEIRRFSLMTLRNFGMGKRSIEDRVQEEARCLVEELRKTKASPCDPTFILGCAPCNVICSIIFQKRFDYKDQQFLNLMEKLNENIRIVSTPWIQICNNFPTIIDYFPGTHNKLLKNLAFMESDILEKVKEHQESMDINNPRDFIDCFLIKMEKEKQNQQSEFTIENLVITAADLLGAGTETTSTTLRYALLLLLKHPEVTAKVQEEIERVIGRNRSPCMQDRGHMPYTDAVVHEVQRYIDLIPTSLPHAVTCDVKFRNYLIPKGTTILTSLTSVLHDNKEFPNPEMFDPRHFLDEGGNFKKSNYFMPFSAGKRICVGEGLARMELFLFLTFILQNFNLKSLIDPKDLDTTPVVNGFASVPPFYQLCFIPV

[2] = Aerosol tolerability analysis of low concentration dosage forms; set-up: key to Throat Irritation: 1 = none; 5 = strong
Excerpt: Additional observations include maintaining osmolality between about 250 to about 500 mOsmo/kg. The tolerability for formulations with an osmolalty outside this range may be adjusted with modifications in the above formulation parameters and device output and aerosol particle size characteristics.

[3] = test system: inflammasome activation in 264.7 macrophages; assay: Inflammasome second signal activation (ATP, secreted IL-1β); format: cell-based; conditions: for IL-1β: LPS +, ATP +; for IC50: Macrophage
[4] = 0.5 mg/kg intratracheal, single dose with LPS, BAL after 24 hours
[5] = 30 mg/kg oral gavage 2 hours before LPS (60-fold larger dose)
[6] = LPS + PO pirfenidone 30.0 mg/kg

T1 sequence (P05177 whole entry): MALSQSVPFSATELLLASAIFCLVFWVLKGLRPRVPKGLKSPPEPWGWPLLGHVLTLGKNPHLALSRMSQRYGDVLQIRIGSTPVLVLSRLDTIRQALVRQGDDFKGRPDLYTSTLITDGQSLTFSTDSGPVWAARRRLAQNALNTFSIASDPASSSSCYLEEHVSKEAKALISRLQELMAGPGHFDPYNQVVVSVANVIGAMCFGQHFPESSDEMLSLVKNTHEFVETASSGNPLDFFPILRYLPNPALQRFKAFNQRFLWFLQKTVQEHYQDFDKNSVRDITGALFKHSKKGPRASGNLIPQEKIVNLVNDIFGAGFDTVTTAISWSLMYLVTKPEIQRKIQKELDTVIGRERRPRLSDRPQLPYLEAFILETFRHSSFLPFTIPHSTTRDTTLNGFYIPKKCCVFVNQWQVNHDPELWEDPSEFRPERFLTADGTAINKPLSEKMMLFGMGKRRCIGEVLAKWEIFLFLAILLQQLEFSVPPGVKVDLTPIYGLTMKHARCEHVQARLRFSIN

Structure (SMILES): Cc1ccc(=O)n(-c2ccccc2)c1 [pirfenidone, 5-methyl-1-phenyl-2-(1H)-pyridone]
- pirfenidone metabolised via CYP1A2 (CYP1A2): approximately 48%
- lung tissue Cmax (estimated) ([1]; 0.5 mg/kg IT): ~83 mcg/gram
- LPS-induced inflammatory cell infiltration (BAL) [1, 4]: negated
- reduction of LPS-induced BAL IL-1β levels [1, 4]: 62%
- effect on LPS-induced BAL IL-1β levels [1, 5]: no effect
- effect on LPS-induced inflammatory cell infiltration (BAL) [1, 5]: no effect
- BAL IL-1β, average ([1]; LPS + IT pirfenidone 0.5 mg/kg): 36.2 pg/mL
- BAL cells (%), EO (eosinophil), average ([1]; LPS + IT pirfenidone 0.5 mg/kg): 0.7%
- BAL cells (%), LM (lymphocytes), average ([1]; LPS + IT pirfenidone 0.5 mg/kg): 1.0%
- BAL cells (%), NP (neutrophils), average ([1]; LPS + IT pirfenidone 0.5 mg/kg): 13.0%
- BAL number cells, EO (eosinophil), average ([1]; LPS + IT pirfenidone 0.5 mg/kg): 0.0 1 × 10e5
- BAL number cells, LM (lymphocytes), average ([1]; LPS + IT pirfenidone 0.5 mg/kg): 0.1 1 × 10e5
- BAL number cells, NP (neutrophils), average ([1]; LPS + IT pirfenidone 0.5 mg/kg): 0.7 1 × 10e5
- LPS-induced IL-1β (%) ([1]; LPS + IT pirfenidone 0.5 mg/kg): 38%
- BAL IL-1β, average [1, 6]: 105.9 pg/mL
- BAL cells (%), EO (eosinophil), average [1, 6]: 0.6%
- BAL cells (%), LM (lymphocytes), average [1, 6]: 0.9%
- BAL cells (%), NP (neutrophils), average [1, 6]: 36.4%
- BAL number cells, EO (eosinophil), average [1, 6]: 0.3 1 × 10e5
- BAL number cells, LM (lymphocytes), average [1, 6]: 0.3 1 × 10e5
- BAL number cells, NP (neutrophils), average [1, 6]: 13.2 1 × 10e5
- LPS-induced IL-1β (%) [1, 6]: 113%
- contribution to pirfenidone metabolism (2C19): less than 13%
- Est. Osmolality ([2]; citrate 5 mM, MgCl2 130 mM, pH 5.5, pirfenidone 16 mg/mL): 490 mOsmo/Kg
- Throat Irritation ([2]; citrate 5 mM, MgCl2 130 mM, pH 5.5, pirfenidone 16 mg/mL, 3.7 micron): 3
- Est. Osmolality ([2]; citrate 5 mM, MgCl2 130 mM, saccharin 0.5 mM, pH 5.5, pirfenidone 16 mg/mL): 490 mOsmo/Kg
- Throat Irritation ([2]; citrate 5 mM, MgCl2 130 mM, saccharin 0.5 mM, pH 5.5, pirfenidone 16 mg/mL, 3.7 micron): 2
- Est. Osmolality ([2]; citrate 5 mM, NaCl 100 mM, MgCl2 43.3 mM, pH 5.5, pirfenidone 16 mg/mL): 430 mOsmo/Kg
- Throat Irritation ([2]; citrate 5 mM, NaCl 100 mM, MgCl2 43.3 mM, pH 5.5, pirfenidone 16 mg/mL, 3.7 micron): 3
- Est. Osmolality ([2]; citrate 5 mM, NaCl 100 mM, MgCl2 43.3 mM, saccharin 0.6 mM, pH 5.5, pirfenidone 16 mg/mL): 430 mOsmo/Kg
- Throat Irritation ([2]; citrate 5 mM, NaCl 100 mM, MgCl2 43.3 mM, saccharin 0.6 mM, pH 5.5, pirfenidone 16 mg/mL, 3.7 micron): 2
- Est. Osmolality ([2]; citrate 5 mM, NaCl 100 mM, pH 5.5, pirfenidone 4 mg/mL): 270 mOsmo/Kg
- Throat Irritation ([2]; citrate 5 mM, NaCl 100 mM, pH 5.5, pirfenidone 4 mg/mL, 3.2 micron): 2
- Est. Osmolality ([2]; citrate 5 mM, NaCl 100 mM, pH 5.5, pirfenidone 16 mg/mL (3.2 micron entry)): 400 mOsmo/Kg
- Est. Osmolality ([2]; citrate 5 mM, NaCl 100 mM, pH 5.5, pirfenidone 16 mg/mL (first 3.7 micron entry)): 400 mOsmo/Kg
- Est. Osmolality ([2]; citrate 5 mM, NaCl 100 mM, pH 5.5, pirfenidone 16 mg/mL (second 3.7 micron entry)): 400 mOsmo/Kg
- Throat Irritation ([2]; citrate 5 mM, NaCl 100 mM, pH 5.5, pirfenidone 16 mg/mL, 3.2 micron): 2
- Throat Irritation ([2]; citrate 5 mM, NaCl 100 mM, pH 5.5, pirfenidone 16 mg/mL, 3.7 micron (first entry)): 3
- Throat Irritation ([2]; citrate 5 mM, NaCl 100 mM, pH 5.5, pirfenidone 16 mg/mL, 3.7 micron (second entry)): 3
- Est. Osmolality ([2]; citrate 5 mM, NaCl 100 mM, saccharin 0.3 mM, pH 5.5, pirfenidone 4 mg/mL): 270 mOsmo/Kg
- Throat Irritation ([2]; citrate 5 mM, NaCl 100 mM, saccharin 0.3 mM, pH 5.5, pirfenidone 4 mg/mL, 3.7 micron): 2
- Est. Osmolality ([2]; citrate 5 mM, NaCl 100 mM, saccharin 0.7 mM, pH 5.5, pirfenidone 16 mg/mL (3.2 micron entry)): 400 mOsmo/Kg
- Est. Osmolality ([2]; citrate 5 mM, NaCl 100 mM, saccharin 0.7 mM, pH 5.5, pirfenidone 16 mg/mL (3.7 micron entry)): 400 mOsmo/Kg
- Est. Osmolality ([2]; citrate 5 mM, NaCl 100 mM, saccharin 0.7 mM, pH 5.5, pirfenidone 16 mg/mL (4.6 micron entry)): 400 mOsmo/Kg
- Throat Irritation ([2]; citrate 5 mM, NaCl 100 mM, saccharin 0.7 mM, pH 5.5, pirfenidone 16 mg/mL, 3.2 micron): 3
- Throat Irritation ([2]; citrate 5 mM, NaCl 100 mM, saccharin 0.7 mM, pH 5.5, pirfenidone 16 mg/mL, 3.7 micron): 2
- Throat Irritation ([2]; citrate 5 mM, NaCl 100 mM, saccharin 0.7 mM, pH 5.5, pirfenidone 16 mg/mL, 4.6 micron (slower output device ~0.5 mL/minute)): 1
- Est. Osmolality ([2]; citrate 5 mM, NaCl 100 mM, saccharin 0.9 mM, pH 5.5, pirfenidone 16 mg/mL (3.2 micron entry)): 400 mOsmo/Kg
- Est. Osmolality ([2]; citrate 5 mM, NaCl 100 mM, saccharin 0.9 mM, pH 5.5, pirfenidone 16 mg/mL (3.7 micron entry)): 400 mOsmo/Kg
- Throat Irritation ([2]; citrate 5 mM, NaCl 100 mM, saccharin 0.9 mM, pH 5.5, pirfenidone 16 mg/mL, 3.2 micron): 1
- Throat Irritation ([2]; citrate 5 mM, NaCl 100 mM, saccharin 0.9 mM, pH 5.5, pirfenidone 16 mg/mL, 3.7 micron): 2
- Est. Osmolality ([2]; citrate 5 mM, NaCl 150 mM, pH 5.5, pirfenidone 4 mg/mL (3.2 micron entry)): 330 mOsmo/Kg
- Est. Osmolality ([2]; citrate 5 mM, NaCl 150 mM, pH 5.5, pirfenidone 4 mg/mL (3.7 micron entry)): 330 mOsmo/Kg
- Throat Irritation ([2]; citrate 5 mM, NaCl 150 mM, pH 5.5, pirfenidone 4 mg/mL, 3.2 micron): 1
- Throat Irritation ([2]; citrate 5 mM, NaCl 150 mM, pH 5.5, pirfenidone 4 mg/mL, 3.7 micron): 2
- Est. Osmolality ([2]; citrate 5 mM, NaCl 150 mM, pH 5.5, pirfenidone 16 mg/mL): 400 mOsmo/Kg
- Throat Irritation ([2]; citrate 5 mM, NaCl 150 mM, pH 5.5, pirfenidone 16 mg/mL, 3.7 micron): 4
- Est. Osmolality ([2]; citrate 5 mM, NaCl 150 mM, saccharin 0.2 mM, pH 5.5, pirfenidone 4 mg/mL): 330 mOsmo/Kg
- Throat Irritation ([2]; citrate 5 mM, NaCl 150 mM, saccharin 0.2 mM, pH 5.5, pirfenidone 4 mg/mL, 3.7 micron): 2
- Est. Osmolality ([2]; citrate 5 mM, NaCl 150 mM, saccharin 0.3 mM, pH 5.5, pirfenidone 4 mg/mL): 330 mOsmo/Kg
- Throat Irritation ([2]; citrate 5 mM, NaCl 150 mM, saccharin 0.3 mM, pH 5.5, pirfenidone 4 mg/mL, 3.7 micron): 1
- Est. Osmolality ([2]; citrate 5 mM, NaCl 150 mM, saccharin 0.5 mM, pH 5.5, pirfenidone 16 mg/mL): 400 mOsmo/Kg
- Throat Irritation ([2]; citrate 5 mM, NaCl 150 mM, saccharin 0.5 mM, pH 5.5, pirfenidone 16 mg/mL, 3.7 micron): 1
- Est. Osmolality ([2]; citrate 5 mM, NaCl 150 mM, saccharin 0.9 mM, pH 5.5, pirfenidone 16 mg/mL): 400 mOsmo/Kg
- Throat Irritation ([2]; citrate 5 mM, NaCl 150 mM, saccharin 0.9 mM, pH 5.5, pirfenidone 16 mg/mL, 3.7 micron): 1
- Est. Osmolality ([2]; no buffer, NaCl 150 mM, pH ND, pirfenidone 16 mg/mL): 375 mOsmo/Kg
- Throat Irritation ([2]; no buffer, NaCl 150 mM, pH ND, pirfenidone 16 mg/mL, 3.2 micron): 5
- Est. Osmolality ([2]; no buffer, NaCl 150 mM, saccharin 0.7 mM, pH ND, pirfenidone 16 mg/mL): 375 mOsmo/Kg
- Throat Irritation ([2]; no buffer, NaCl 150 mM, saccharin 0.7 mM, pH ND, pirfenidone 16 mg/mL, 3.2 micron): 5
- Est. Osmolality ([2]; phosphate 5 mM, MgCl2 43.3 mM, pH 7, pirfenidone 16 mg/mL): 210 mOsmo/Kg
- Throat Irritation ([2]; phosphate 5 mM, MgCl2 43.3 mM, pH 7, pirfenidone 16 mg/mL, 3.7 micron): 5
- Est. Osmolality ([2]; phosphate 5 mM, MgCl2 43.3 mM, saccharin 0.5 mM, pH 7, pirfenidone 16 mg/mL): 210 mOsmo/Kg
- Throat Irritation ([2]; phosphate 5 mM, MgCl2 43.3 mM, saccharin 0.5 mM, pH 7, pirfenidone 16 mg/mL, 3.7 micron): 5
- Est. Osmolality ([2]; phosphate 5 mM, NaCl 50 mM, MgCl2 43.3 mM, pH 7, pirfenidone 16 mg/mL): 310 mOsmo/Kg
- Throat Irritation ([2]; phosphate 5 mM, NaCl 50 mM, MgCl2 43.3 mM, pH 7, pirfenidone 16 mg/mL, 3.7 micron): 4
- Est. Osmolality ([2]; phosphate 5 mM, NaCl 50 mM, pH 7, pirfenidone 16 mg/mL): 200 mOsmo/Kg
- Throat Irritation ([2]; phosphate 5 mM, NaCl 50 mM, pH 7, pirfenidone 16 mg/mL, 3.7 micron): 5
- Est. Osmolality ([2]; phosphate 5 mM, NaCl 150 mM, pH 7, pirfenidone 16 mg/mL): 400 mOsmo/Kg
- Throat Irritation ([2]; phosphate 5 mM, NaCl 150 mM, pH 7, pirfenidone 16 mg/mL, 3.7 micron): 3
- IL-1β ([3]; Longer-term exposure, 40 min > ATP, pirfenidone 5 mcg/mL): 1.4 pg/mL
- IL-1β ([3]; Longer-term exposure, 40 min > ATP, pirfenidone 25 mcg/mL): 1.1 pg/mL
- IL-1β ([3]; Longer-term exposure, 40 min > ATP, pirfenidone 125 mcg/mL): 0.9 pg/mL
- IL-1β ([3]; Longer-term exposure, 40 min > ATP, pirfenidone 625 mcg/mL): 0.4 pg/mL
- IC50 ([3]; 40 min, second (40 minute) sampling point alone, short-term exposure): ~25 µg/mL (≈ 135 µM)
- IC50 ([3]; sum of short-term sampling points and longer-term sampling point): ~625 µg/mL (≈ 3370 µM)
- IL-1β ([3]; Short-term exposure, 10 + 40 min > ATP (sum of sampling points), pirfenidone 5 mcg/mL): 1.1 pg/mL
- IL-1β ([3]; Short-term exposure, 10 + 40 min > ATP (sum of sampling points), pirfenidone 25 mcg/mL): 1.0 pg/mL
- IL-1β ([3]; Short-term exposure, 10 + 40 min > ATP (sum of sampling points), pirfenidone 125 mcg/mL): 1.0 pg/mL
- IL-1β ([3]; Short-term exposure, 10 + 40 min > ATP (sum of sampling points), pirfenidone 625 mcg/mL): 0.6 pg/mL
- IL-1β ([3]; Short-term exposure, 10 min > ATP, pirfenidone 5 mcg/mL): 81.5 pg/mL
- IL-1β ([3]; Short-term exposure, 10 min > ATP, pirfenidone 25 mcg/mL): 100.0 pg/mL
- IL-1β ([3]; Short-term exposure, 10 min > ATP, pirfenidone 125 mcg/mL): 118.7 pg/mL
- IL-1β ([3]; Short-term exposure, 10 min > ATP, pirfenidone 625 mcg/mL): 66.3 pg/mL
- IL-1β ([3]; Short-term exposure, 40 min > ATP, pirfenidone 5 mcg/mL): 95.8 pg/mL
- IL-1β ([3]; Short-term exposure, 40 min > ATP, pirfenidone 25 mcg/mL): 50.4 pg/mL
- IL-1β ([3]; Short-term exposure, 40 min > ATP, pirfenidone 125 mcg/mL): 36.3 pg/mL
- IL-1β ([3]; Short-term exposure, 40 min > ATP, pirfenidone 625 mcg/mL): 27.3 pg/mL
